SMILES strings stand for the structures.

The values below come from ChEMBL document CHEMBL2401728, “An unexpected Dimroth rearrangement leading to annelated thieno[3,2-d][1,2,3]triazolo[1,5-a]pyrimidines with potent antitumor activity” (Eur J Med Chem, 2013).

One assay has as its system A549. Briefly: Cytotoxicity against human A549 cells after 48 hrs by SRB assay. It counts as functional. The conditions noted are these: A549, 48 h, read-out: pLC50 (converted). On the technique in general: The SRB assay estimates cell density from bound dye.
The test system of another assay is HT-29. Kind of assay: Cytotoxicity against human HT-29 cells after 48 hrs by SRB assay. It counts as functional. As to conditions: HT-29, 48 h, read-out: pLC50 (the source's name) (converted).
The nature of assay [1]: Cytotoxicity against human melanoma cells assessed as cellular growth at 10 uM after 48 hrs by SRB assay relative to control. It counts as functional, Melanoma cell.
The test system of the next assay is MDA-MB-435. Kind of assay: Cytotoxicity against human MDA-MB-435 cells after 48 hrs by SRB assay. The conditions noted are these: MDA-MB-435, 48 h, read-out: pLC50 (the source's name) (converted). It counts as functional.
Assay [2] can be described thus: Cytotoxicity against human leukemia cells assessed as cellular growth at 10 uM after 48 hrs by SRB assay relative to control. It counts as functional, Leukemia cell.
Assay [3] can be described thus: Cytotoxicity against human renal cancer cells assessed as cellular growth at 10 uM after 48 hrs by SRB assay relative to control. It counts as functional, Cancer cell lines.
A short description of assay [4]: Cytotoxicity against human prostate cancer cells assessed as cellular growth at 10 uM after 48 hrs by SRB assay relative to control. The class given is functional, Cancer cell lines.
Another assay relates to HCC 2998. Kind of assay: Cytotoxicity against human HCC2998 cells after 48 hrs by SRB assay. The class given is functional. As to conditions: HCC 2998, 48 h, read-out: pLC50 (the source's name) (converted).
Assay [5] in a line: Cytotoxicity against human non-small cell lung cancer cells assessed as cellular growth at 10 uM after 48 hrs by SRB assay relative to control. The class given is functional, Cancer cell lines.
Assay [6] in a line: Cytotoxicity against human breast cancer cells assessed as cellular growth at 10 uM after 48 hrs by SRB assay relative to control. The class given is functional, Cancer cell lines.
The next assay has as its system RPMI-8226. Briefly: Cytotoxicity against human RPMI8226 cells after 48 hrs by SRB assay. It counts as functional. As to conditions: RPMI-8226, 48 h, read-out: pLC50 (converted).
The next assay deals with K562. Briefly: Cytotoxicity against human K562 cells after 48 hrs by SRB assay. The class given is functional. The conditions noted are these: K562, 48 h, read-out: pLC50 (the source's name) (converted).
A short description of assay [7]: Cytotoxicity against human ovarian cancer cells assessed as cellular growth at 10 uM after 48 hrs by SRB assay relative to control. The class given is functional, Cancer cell lines.
The subject of a further assay is MOLT-4. Kind of assay: Cytotoxicity against human MOLT4 cells after 48 hrs by SRB assay. It counts as functional. As to conditions: MOLT-4, 48 h, read-out: pLC50 (the source's name) (converted).
Assay [8] can be described thus: Cytotoxicity against human EKVX cells after 48 hrs by SRB assay. The class given is functional. As to conditions: read-out: pLC50 (the source's name) (converted).
The next assay deals with CCRF-CEM. Kind of assay: Cytotoxicity against human CCRF-CEM cells after 48 hrs by SRB assay. It counts as functional.
Another assay concerns HCT-15. Briefly: Cytotoxicity against human HCT15 cells after 48 hrs by SRB assay. It counts as functional. The conditions noted are these: HCT-15, 48 h, read-out: pTGI (converted).
Another assay deals with SNB-19. Briefly: Cytotoxicity against human SNB19 cells after 48 hrs by SRB assay. The class given is functional. As to conditions: SNB-19, 48 h, read-out: pLC50 (the source's name) (converted).
A short description of assay [9]: Cytotoxicity against human CNS cancer cells assessed as cellular growth at 10 uM after 48 hrs by SRB assay relative to control. The class given is functional, Cancer cell lines.
Another assay concerns MCF7. Kind of assay: Cytotoxicity against human MCF7 cells after 48 hrs by SRB assay. It counts as functional. As to conditions: MCF7, 48 h.
A short description of assay [10]: Cytotoxicity against human colon cancer cells assessed as cellular growth at 10 uM after 48 hrs by SRB assay relative to control. It counts as functional, Cancer cell lines.

For the compound `O=C(CCCn1c(=O)c2sc3ncccc3c2n2nnc(-c3ccccc3)c12)NCCc1c[nH]cn1`, the CC50 in the assay with A549, with HT-29, in the assay with MDA-MB-435, with HCC 2998, with RPMI-8226 and in the assay on K562 was above 100 µM in each case. The CC50 (in the assay with MOLT-4; in assay [8]; in the assay on CCRF-CEM (read-out: pLC50 (the source's name) (converted)); in the assay with SNB-19) was above 100 µM in each case. In addition, the Activity in [1] turned out to be 71%; in assay [2], 61%; in [3] it was 79%; in [4] it was 46%; in assay [5], 88%; in assay [6], 79%. The figures for the Activity in assay [7], in assay [9] and in [10] were 59%, 60% and 49%, respectively. The TGI with HCT-15 and in the assay on MCF7 (read-out: pTGI (converted)) was 100 µM throughout. Besides, the LC50 with MCF7 (read-out: pLC50 (converted)) was above 100 µM.

Consider `O=C(CCCn1c(=O)c2sc3ccccc3c2n2nnc(-c3ccccc3)c12)NCCc1c[nH]cn1`, for which the Activity is reported as -57% in [1]; 71% in assay [2]; -34% in assay [3]; -41% in [4]; -26% in assay [5]; -5% in assay [6]. Besides, the Activity was -16% in [7], -18% in [9] and -49% in assay [10]. Besides, the TGI in the assay with CCRF-CEM (read-out: pTGI (converted)) is 100 µM.

Regarding `CN1CCN(CCCn2c(=O)c3sc4ncccc4c3n3nnc(-c4ccccc4)c23)CC1`, the Activity is reported as -78% in assay [1]; -22% in [2]; -14% in assay [3]; 39% in assay [4]; 14% in assay [5]; -23% in assay [6]. Also, the Activity in [7] was 7%; in [9] it was -43%; in assay [10] it was -37%.
